# Calls of active or inactive are those of the source. The rule behind the calls is not given here. Where a SMILES comes first, the peptide text is derived from it. [ ]: non-standard residue; d: D form. The star is where a group is joined. ξ: configuration not given here. Phe(ol) = N[C@H](CO)Cc1ccccc1; ξF = NC(Cc1ccccc1)C(=O)O; Boc = CC(C)(C)OC(=O)*
# Organism: Homo sapiens
# Test: Inhibition of alpha-chymotrypsin (unknown origin) at 500 uM using Ala-Ala-Phe-7-AMC as substrate measured over 10 mins by spectrophotometric method
row,Structure (SMILES),inhibition
1,CCOC(=O)c1ccc(C(=O)N[C@@H](CC(C)C)C(=O)N[C@H](CO)Cc2ccccc2)o1,inactive
2,CC(C)C[C@H](NC(=O)[C@H](C)NC(=O)OC(C)(C)C)C(=O)N[C@H](CO)Cc1ccccc1 (Boc-Ala-Leu-[Phe(ol)]),inactive

# Results, then the compound that gave them:
row,inhibition,Structure (SMILES)
1,inactive,COC(=O)c1ccc(C(=O)N[C@@H](CC(C)C)C(=O)N[C@H](CO)Cc2ccccc2)s1
2,inactive,COC(=O)c1ccc(C(=O)N[C@@H](CC(C)C)C(=O)N[C@H](CO)Cc2ccccc2)o1
3,inactive,COC(=O)c1ccc(C(=O)N[C@@H](CC(C)C)C(=O)N[C@H](CO)Cc2ccccc2)[nH]1
4,inactive,COC(=O)c1cccc(C(=O)N[C@@H](CC(C)C)C(=O)N[C@H](CO)Cc2ccccc2)n1

# Test system: not listed separately
# Test: Inhibition of alpha-chymotrypsin (unknown origin) using Ala-Ala-Phe-7-AMC as substrate measured over 10 mins by spectrophotometric method
# Parameters: species or system Homo sapiens
row,IC50,Structure (SMILES)
1,1.4 µM,CC(C)C[C@H](NC(=O)[C@H](C)NC(=O)OC(C)(C)C)C(=O)NC(C=O)Cc1ccccc1 (stereo partly drawn) (Boc-Ala-Leu-[ξF]-aldehyde)
2,36 µM,COC(=O)c1ccc(C(=O)N[C@@H](CC(C)C)C(=O)NC(C=O)Cc2ccccc2)o1 (mixture of isomers)
3,35 µM,COC(=O)c1cccc(C(=O)N[C@@H](CC(C)C)C(=O)NC(C=O)Cc2ccccc2)n1 (stereo partly specified)
4,40 µM,COC(=O)c1ccc(C(=O)N[C@@H](CC(C)C)C(=O)NC(C=O)Cc2ccccc2)s1 (mixture of isomers)
5,1.1 µM,COC(=O)c1ccc(C(=O)N[C@@H](CC(C)C)C(=O)NC(C=O)Cc2ccccc2)[nH]1 (mixture of isomers)
